Data from ChEMBL document CHEMBL5335870, “Discovery of Hepatitis B Virus Surface Antigen Suppressor GS-8873” (ACS Med Chem Lett, 2024).
One block for each compound: values may come before it. The source made the active and inactive calls. The calls are words filed in the database; no cut-off is given here.

Key:
Primary hepatocyte [1] = assay: Effect on cccDNA level in HBV infected primary human hepatocyte at 0.5 uM media replaced for every 2 to 3 days incubated for 12 days by Southern blot analysis; type: functional, cell-based; settings: Hepatitis B virus, time 12.0 day
Hepatitis B virus [2] = assay: Antiviral activity against genotype D HBV infected in sodium taurocholate co-transporting polypeptide receptor-expressing stable HepG2 cell line assessed as suppression of HBsAg level incubated for 5 days by multiplex chemiluminescent MSD assay; type: functional, organism-based; settings: HepG2, 120 h
[3] = Lipophilicity, logD of the compound; type: physicochemical; settings: octanol/water
[4] = In vivo clearance in rat; type: ADME, organism-based
[5] = In vivo clearance in dog; type: ADME, organism-based, Canis lupus familiaris
[6] = In vivo clearance in cynomolgus monkey; type: ADME, organism-based, Macaca fascicularis
[7] = Hepatic extraction in rat; type: ADME; settings: read-out: ERH
[8] = Hepatic extraction in dog; type: ADME, Canis lupus familiaris; settings: read-out: ERH
[9] = Hepatic extraction in cynomolgus monkey; type: ADME, Macaca fascicularis; settings: read-out: ERH
[10] = Oral bioavailability in rat at 5 mg/kg; type: ADME, organism-based; settings: in vivo
[11] = Oral bioavailability in cynomolgus monkey at 5 mg/kg; type: ADME, organism-based, Macaca fascicularis; settings: in vivo
[12] = Clearance in Sprague-Dawley rat at […], iv measured after 24 hrs by LC/MS/MS method; type: ADME, organism-based; settings: in vivo
[13] = Oral bioavailability in Sprague-Dawley rat after 24 hrs by LC/MS/MS method; type: ADME, organism-based; settings: in vivo
[14] = Oral bioavailability in dog at 5 mg/kg; type: ADME, organism-based, Canis lupus familiaris; settings: in vivo
Hepatitis B virus [15] = assay: Antiviral activity against genotype D (AD38-derived) HBV infected in primary human hepatocyte assessed as inhibition of extracellular HBsAg media replaced for every 2 to 3 days incubated for 12 days by multiplex chemiluminescent MSD assay; type: functional; settings: time 12 day
Hepatitis B virus [16] = assay: Antiviral activity against genotype A HBV infected in primary human hepatocyte assessed as reduction in […] replaced for every 2 to 3 days incubated for 12 days by multiplex chemiluminescent MSD assay; type: functional, organism-based; settings: time 12.0 day
Hepatitis B virus [17] = assay: Antiviral activity against genotype B HBV infected in primary human hepatocyte assessed as reduction in […] replaced for every 2 to 3 days incubated for 12 days by multiplex chemiluminescent MSD assay; type: functional, organism-based; settings: time 12.0 day
Hepatitis B virus [18] = assay: Antiviral activity against genotype C HBV infected in primary human hepatocyte assessed as reduction in […] replaced for every 2 to 3 days incubated for 12 days by multiplex chemiluminescent MSD assay; type: functional, organism-based; settings: time 12.0 day
Hepatitis B virus [19] = assay: Antiviral activity against genotype E HBV infected in primary human hepatocyte assessed as reduction in […] replaced for every 2 to 3 days incubated for 12 days by multiplex chemiluminescent MSD assay; type: functional, organism-based; settings: time 12.0 day
Primary hepatocyte [20] = assay: Effect on cccDNA level in HBV infected primary human hepatocyte at 0.25 uM media replaced for every 2 to 3 days incubated for 12 days by Southern blot analysis; type: functional, cell-based; settings: Hepatitis B virus, time 12.0 day
Primary hepatocyte [21] = assay: Effect on cccDNA level in HBV infected primary human hepatocyte at 0.25 uM media replaced for every 2 to 3 days incubated for 12 days in presence of Tenofovir by Southern blot analysis; type: functional, cell-based; settings: Hepatitis B virus, time 12.0 day
Hepatitis B virus [22] = assay: Antiviral activity against HBV genome D integrated human HepG2.2.15 cells assessed as reduction in extracellular HBsAg media replaced for every 2 to 3 days incubated for 7 days; type: functional, organism-based; settings: time 7.0 day
Hepatitis B virus [23] = assay: Antiviral activity against HBV genome D integrated human HepAD38 cells assessed as reduction in extracellular HBsAg media replaced for every 2 to 3 days incubated for 7 days […]; type: functional, organism-based; settings: time 7.0 day
Hepatitis B virus [24] = assay: Antiviral activity against HBV infected in primary human hepatocyte assessed as reduction in intracellular HBsAg protein at 250 nM media replaced for every 2 to 3 days incubated for 14 days by immunofluorescence microscopy; type: functional, organism-based; settings: time 14.0 day
PBMC = assay: Cytotoxicity against human PBMC cells assessed as inhibition of cell viability measured upto 17 uM incubated for 5 days; type: toxicity, cell-based; settings: 120 h, time 5 day
[25] = Cytotoxicity against rat NRVM cells assessed as inhibition of cell viability measured upto 17 uM incubated for 5 days; type: toxicity, cell-based; settings: 120 h, time 5 day
MT4 = assay: Cytotoxicity against human MT4 cells assessed as inhibition of cell viability measured upto 17 uM incubated for 5 days; type: toxicity, cell-based; settings: mt4, 120 h, time 5 day
HepG2 = assay: Cytotoxicity against human HepG2 cells assessed as inhibition of cell viability measured upto 17 uM incubated for 5 days; type: toxicity, cell-based; settings: hepg2, 120 h, time 5 day
Huh-7 = assay: Cytotoxicity against human Huh-7 cells assessed as inhibition of cell viability measured upto 17 uM incubated for 5 days; type: toxicity, cell-based; settings: huh-7, 120 h, time 5 day
MRC5 = assay: Cytotoxicity against human MRC5 cells assessed as inhibition of cell viability measured upto 17 uM incubated for 5 days; type: toxicity, cell-based; settings: mrc5, 120 h, time 5 day
PC-3 = assay: Cytotoxicity against human PC-3 cells assessed as inhibition of cell viability measured upto 17 uM incubated for 5 days; type: toxicity, cell-based; settings: pc-3, 120 h, time 5 day
J82 = assay: Cytotoxicity against human J82 cells assessed as inhibition of cell viability measured upto 17 uM incubated for 5 days; type: toxicity, cell-based; settings: j82, 120 h, time 5 day
MG-63 = assay: Cytotoxicity against human MG-63 cells assessed as inhibition of cell viability measured upto 17 uM incubated for 5 days; type: toxicity, cell-based; settings: mg-63, 120 h, time 5 day
A 172 = assay: Cytotoxicity against human A-172 cells assessed as inhibition of cell viability measured upto 17 uM incubated for 5 days; type: toxicity, cell-based; settings: a 172, 120 h, time 5 day
SK-N-AS = assay: Cytotoxicity against human SK-N-AS cells assessed as inhibition of cell viability measured upto 17 uM incubated for 5 days; type: toxicity, cell-based; settings: 120 h, time 5 day
769-P = assay: Cytotoxicity against human 769-P cells assessed as inhibition of cell viability measured upto 17 uM incubated for 5 days; type: toxicity, cell-based; settings: 120 h, time 5 day
A498 = assay: Cytotoxicity against human A498 cells assessed as inhibition of cell viability measured upto 17 uM incubated for 5 days; type: toxicity, cell-based; settings: a498, 120 h, time 5 day
OVCAR-3 = assay: Cytotoxicity against human OVCAR-3 cells assessed as inhibition of cell viability measured upto 17 uM incubated for 5 days; type: toxicity, cell-based; settings: ovcar-3, 120 h, time 5 day
ASPC1 = assay: Cytotoxicity against human AsPC1 cells assessed as inhibition of cell viability measured upto 17 uM incubated for 5 days; type: toxicity, cell-based; settings: aspc1, 120 h, time 5 day
A-375 = assay: Cytotoxicity against human A-375 cells assessed as inhibition of cell viability measured upto 17 uM incubated for 5 days; type: toxicity, cell-based; settings: a-375, 120 h, time 5 day
A204 = assay: Cytotoxicity against human A204 cells assessed as inhibition of cell viability measured upto 17 uM incubated for 5 days; type: toxicity, cell-based; settings: a204, 120 h, time 5 day
AN3-CA = assay: Cytotoxicity against human AN3-CA cells assessed as inhibition of cell viability measured upto 17 uM incubated for 5 days; type: toxicity, cell-based; settings: 120 h, time 5 day
Hepatocyte = assay: Cytotoxicity against primary human hepatocyte assessed as change in cell morphology; type: toxicity, cell-based; settings: hepatocytes
[26] = system: Woodchuck hepatitis virus; assay: Antiviral activity against WHV-infected Woodchucks assessed as reduction in WHV sAg level in plasma at 15 mg/kg, po qd for 12 weeks; type: functional
Hepatitis B virus [27] = assay: In vivo antiviral activity against HBV in model of HBV 1.3.32 mouse harboring integrated greater-than-genome-length HBV transgene assessed as reduction in plasma HBsAg level at 50 mg/kg, sc qd treated for 4 weeks (reference value: 1.1 log10 ng/ml); type: functional
Hepatitis B virus [28] = assay: In vivo antiviral activity against HBV in model of HBV 1.3.32 mouse harboring integrated greater-than-genome-length HBV transgene assessed as plasma HBsAg level measured in off-treatment recovery phase at 50 mg/kg, sc qd treated for 4 weeks (reference value: 1.1 log10 ng/ml); type: functional

EC50 (Hepatitis B virus [2]): 150 nM
logD [3]: 2.5
clearance [4]: 0.3 L/h/kg
clearance [5]: 0.36 L/h/kg
clearance [6]: 0.17 L/h/kg
hepatic extraction ratio [7]: 0.071
hepatic extraction ratio [8]: 0.2
hepatic extraction ratio [9]: 0.11
bioavailability [10]: 41%
bioavailability [11]: 120%
SMILES: COCCCOc1cc2c(cc1Cl)-c1cc(=O)c(C(=O)O)cn1[C@H](C(C)(C)C)C2

EC50 (Hepatitis B virus [2]): 0.97 nM
clearance [12]: 0.54 L/h/kg
bioavailability [13]: 60%
SMILES: COCCCOc1cc2c(cc1OC(F)F)-c1cc(=O)c(C(=O)O)cn1N1[C@@H]2CCC1(C)C

logD [3]: 2.2
SMILES: COCCCOc1cc2c(cc1OC)-c1cc(=O)c(C(=O)O)cn1C(C1(C)CC1)C2 (stereo not drawn)

The next lines start with the compound.

SMILES: C[C@H](Cn1cnc2c(N)ncnc21)OCP(=O)(O)O
Activity (Primary hepatocyte [1]): inactive

SMILES: COCCCOc1cc2c(cc1Cl)-c1cc(=O)c(C(=O)O)cn1N(C(C)(C)C)C2
EC50 (Hepatitis B virus [2]): 5.8 nM
clearance [12]: 1.18 L/h/kg
bioavailability [13]: 109%
logD [3]: 2
clearance [4]: 0.18 L/h/kg
clearance [5]: 0.13 L/h/kg
clearance [6]: 0.032 L/h/kg
hepatic extraction ratio [7]: 0.043
hepatic extraction ratio [8]: 0.072
hepatic extraction ratio [9]: 0.02
bioavailability [10]: > 100%
bioavailability [14]: > 100%
bioavailability [11]: 48%
inhibition (INH) (Hepatitis B virus [15]): 85%
Activity (Hepatitis B virus [16]): Active
Activity (Hepatitis B virus [17]): Active
Activity (Hepatitis B virus [18]): Active
Activity (Hepatitis B virus [19]): Active
Activity (Primary hepatocyte [20]): inactive
Activity (Primary hepatocyte [21]): inactive
Activity (Hepatitis B virus [22]): Active
Activity (Hepatitis B virus [23]): Active
Activity (Hepatitis B virus [24]): Active
Activity (PBMC): Non-Toxic
Activity [25]: Non-Toxic
Activity (MT4): Non-Toxic
Activity (HepG2): Non-Toxic
Activity (Huh-7): Non-Toxic
Activity (MRC5): Non-Toxic
Activity (PC-3): Non-Toxic
Activity (J82): Non-Toxic
Activity (MG-63): Non-Toxic
Activity (A 172): Non-Toxic
Activity (SK-N-AS): Non-Toxic
Activity (769-P): Non-Toxic
Activity (A498): Non-Toxic
Activity (OVCAR-3): Non-Toxic
Activity (ASPC1): Non-Toxic
Activity (A-375): Non-Toxic
Activity (A204): Non-Toxic
Activity (AN3-CA): Non-Toxic
Activity (Hepatocyte): Non-Toxic
Activity [26]: 1.4 log10ng/ml
Activity (Hepatitis B virus [27]): 2.2 log10ng/ml
Activity (Hepatitis B virus [28]): 0.7 log10ng/ml

SMILES: COCCCOc1cc2c(cc1Cl)-c1cc(=O)c(C(=O)O)cn1[C@H](C1(C)CC1)C2
EC50 (Hepatitis B virus [2]): 3.8 nM
logD [3]: 2.4
Activity (Primary hepatocyte [20]): inactive
